The data set is described as follows: Human HepG2 cell viability assay in 384 well format. Set-up: dose 125 nL, time 70.5 hour; concentration not given beside the values. The data set is classed as toxicity, cell-based. Particulars: HepG2 cells, read-out: Inhibition.

This note sets out measurements from ChEMBL document CHEMBL3507680, “University of Dundee, Gates Library screen for HepG2 cell viability”.

For `Cc1noc(-c2ccc(N3CCCC(C(=O)c4nccn4C)C3)nc2)n1` (stereo not drawn), the cytotoxicity at 70.5 h is -8.49%.
For `CN(Cc1ccsc1)C(=O)c1n[nH]c(N)c1-c1ccccc1`, the cytotoxicity at 70.5 h is -1.37%.
To `COc1ccc2c(c1)C(C(=O)N(C)CCCc1cnn(C)c1)CC(=O)N2` (stereo not drawn) belongs -12.9%; to `CC(C)CC(=O)N1CCCCC(NC(=O)CCc2cccnc2)C1` (stereo not drawn), -1.04%; to `Cc1cc(C)n(CC(C)Nc2nc(C)nc3c2CCNC3)n1` (stereo not drawn), -8.55%.
`Cc1cnc(N2CCCC3(CCOCC3)C2)nc1`: the cytotoxicity at 70.5 h is -1.55%.
To `CN(C)c1ccc(C(=O)N2Cc3cnc(C(C)(C)C)nc3C2)cc1` belongs -2.91%.
Under `CC(C)c1noc(CN(C)C(=O)C2COc3ccccc3C2)n1` (stereo not drawn) stands -7.56%.
To `CC(c1ccon1)N(C)Cc1cc(O)c2cc(F)ccc2n1` (stereo not drawn) belongs -10.6%; to `CC(C)[C@H]1CN(S(=O)(=O)c2cccnc2)C[C@@H]1N`, 0.829%.
Regarding `COc1cccc(OCCN2CC[C@@](O)(C3CCOCC3)[C@H](C)C2)c1`, the cytotoxicity at 70.5 h came to 1.27%.
To `CCc1ccccc1OCCN(C)C(=O)CCN1CCCO1` belongs -3.75%; to `OCCC1CN(c2ncnc3[nH]cnc23)CCN1Cc1cccs1` (stereo not drawn), -3.01%.
Under `Cc1cccc(CN2C[C@H]3CC[C@@H]2CN(Cc2[nH]cnc2C)C3)n1` stands -5.25%.
In the case of `CCc1cn[nH]c1C1CCN(c2cc(C)c3cc(OC)ccc3n2)CC1`, the cytotoxicity at 70.5 h was 1.76%.
Regarding `COCCN1CCC(CNc2nccc(-c3cnn(C)c3)n2)CC1`, the cytotoxicity at 70.5 h was -3.27%.
To `Fc1ccc(Cn2ncc3c2CN(c2ncccn2)C3)cc1` belongs -0.987%.
Under `Cc1cc2cccc(NC(=O)N3CCC(N4CCSCC4)CC3)c2o1` stands -11%; under `CC(C)OC(=O)N1CCCC(c2nccn2Cc2ccncc2)C1` (stereo not drawn), -8%.
With `O=C1CCC2(CCCN(C(=O)c3ccc[nH]3)C2)CN1Cc1cccnc1` (stereo not drawn), the cytotoxicity at 70.5 h is -3.97%.
To `COc1nc2ccn(CCc3cc(O)nc(C)n3)c(=O)c2cc1C#N` belongs -7.61%; to `CN(C)C(=O)CN1CC=C(c2cnn(Cc3ccccc3)c2)CC1`, -15.3%; to `O=C(O)c1ccnc(-c2ccnc(NCCc3ccc(F)cc3)n2)c1`, -5.83%.
Turning to `COc1nc2c(cc1C(=O)NCCc1nc3ccccc3s1)CCC2`, the cytotoxicity at 70.5 h was -6.58%.
To `CN(C)c1nccnc1N1CC[C@@]2(O)CCNC[C@H]2C1` belongs 9.65%.
Regarding `Cc1ccc(-c2nc(CC3CCN(C)CC3)no2)cc1N1CCNC1=O`, the cytotoxicity at 70.5 h is -7.33%.
As to `CC(C)Cc1cc(CNC(=O)c2ccccc2C2CCNC2)no1` (stereo not drawn), the cytotoxicity at 70.5 h was -17.5%.
To `O=C(O)C1(Oc2ccc(Cl)cc2)CCN(C2CCOCC2)CC1` belongs -17.1%; to `Cc1cc(CC(C)NC(=O)c2cccc(CC3CCNCC3)c2)[nH]n1` (stereo not drawn), -2.93%; to `CC(C)=CCN1C(=O)[C@H]2CC[C@@H]1CN(C(=O)CCc1nc(Cl)n[nH]1)C2`, -14.8%.
As to `COc1ccccc1N1CCN(C(=O)CCn2ccc(C)n2)CC1(C)C`, the cytotoxicity at 70.5 h was -5.62%.
To `Cc1ccc(C(=O)N2CCC3(CCC(=O)N(CCN(C)C)C3)CC2)nc1` belongs -3.11%; to `CCOc1ccc(C(=O)CCC(=O)NCc2csc(N)n2)cc1C`, -11.5%; to `CC/C=C(\C)CN1CCC(CNC(=O)c2c[nH]c(=O)c(Cl)c2)C1` (stereo not drawn), 12.8%.
For `CN(Cc1ccccn1)C(C(=O)O)c1ccc2c(c1)OCO2` (stereo not drawn), the cytotoxicity at 70.5 h is -2.22%.
Consider `CN(Cc1cn(C2CCNCC2)nn1)CC1CCCO1` (stereo not drawn), for which the cytotoxicity at 70.5 h was -9.31%.
Under `CC(C)c1nccn1CCCNC(=O)c1ccc(-c2ccncc2)nc1` stands 17.9%; under `CCCN(CCc1ccccc1)C(=O)c1ccccc1NCC(=O)O`, -7.74%.
To `CCc1cc(CN(C)C(=O)CN2CC3(CCNCC3)OC2=O)on1` belongs -2.42%; to `COC[C@]1(O)CCN(C(=O)c2cccc(CN(C)C)c2)CC1(C)C`, -5.34%; to `O[C@H]1[C@H](NCCc2ccccn2)c2ccccc2C12CCNCC2`, 20.6%.
Consider `CC(=O)N1CCc2[nH]cnc2C12CCN(C(=O)CCn1cccn1)CC2`, for which the cytotoxicity at 70.5 h came out at 1.39%.
To `COc1ccc(C(=O)N2CCOCC(CO)C2)cc1N1CCOCC1` (stereo not drawn) belongs -3.09%; to `CC(C)c1nccc(CN2CCC(O)(CN3CCCCC3)C2)n1` (stereo not drawn), -4.46%; to `O=C(CN1CCN(c2ncccn2)[C@@H]2CS(=O)(=O)C[C@@H]21)N1CCCCC1`, -1.85%.
For the compound `Cc1nc(CCN2CCC(Oc3ccccc3F)CC2)c(C)s1`, the cytotoxicity at 70.5 h came out at 8.34%.
Consider `CCc1cnc(NCCSc2cnn[nH]2)nc1`, for which the cytotoxicity at 70.5 h amounted to 28.2%.
Under `Cc1cc(C(=O)N2C[C@@H](CN3CCCCC3)[C@@H](CO)C2)ccc1O` stands -5.69%; under `CC(C(=O)O)N1CCc2onc(-c3ccc(F)c(F)c3)c2C1` (stereo not drawn), -6.87%; under `CNC(=O)c1cn2cc(-c3ccccc3Cl)n(CC=C(C)C)c(=O)c2n1`, 35.1%.
For the compound `CCC1CN(C(=O)c2cccnc2O)CCC(=O)N1Cc1ccccc1` (stereo not drawn), the cytotoxicity at 70.5 h was -3.15%.
Under `COc1ccccc1-c1noc(CCC(=O)NC(C)Cn2cccn2)n1` (stereo not drawn) stands -3.38%.
Under `CCNc1ncc(C(=O)N(C)C(C)c2ccc3c(c2)OCCO3)cn1` (stereo not drawn) stands -2.94%; under `CNC(=O)c1noc(CN2CC[C@](C)(O)[C@H](C)C2)n1`, -8.07%; under `Cc1cccc(=O)n1CCC(=O)N1CCC2(CC1)OCCCC2O` (stereo not drawn), -3.41%.
To `CCc1csc(CNC2CCN(Cc3ccccc3)C2)n1` (stereo not drawn) belongs -8.44%.
As to `CCNC(=O)[C@@H]1C[C@@H](N)CN1C(=O)C1(c2ccc(OC)cc2)CCCC1`, the cytotoxicity at 70.5 h was -9.96%.
Under `CCN1CCN(C(C)(C)CNc2nc(C)cc(C3CCC3)n2)CC1` stands -5.33%; under `CCCc1ncc(CN(CCOC)Cc2cccs2)cn1`, -1.12%.
Consider `COc1cccn(CC(=O)N2CCCC3(CCCCC3)C2)c1=O`, for which the cytotoxicity at 70.5 h was -4.6%.
As for `O=C(O)c1nn(CC2CC2)c2c1CN(S(=O)(=O)c1cccnc1)CC2`, the cytotoxicity at 70.5 h is -11%.
Turning to `Cc1cc(C)c2c(NC(C)c3nncn3C3CCCC3)ncnc2n1` (stereo not drawn), the cytotoxicity at 70.5 h is -4.92%.
To `CN(C)[C@H]1CN(C(=O)CCc2cccc(F)c2)C[C@@H]1C1CC1` belongs -5.67%; to `Cc1n[nH]c(CN2CCN(c3ncnc4scc(C)c34)CC2)c1Cl`, -8.15%; to `CCn1cc(-c2n[nH]c(=O)n2-c2ccc(OC)c(OC)c2)c(C)n1`, -4.02%.
As to `Cn1c(CN2CCCCC2)nnc1C1CCN(c2nccc(N)n2)CC1`, the cytotoxicity at 70.5 h was -7.78%.
To `COc1cc(N(C)Cc2cc(C(C)(C)C)n[nH]2)ncn1` belongs 17.2%.
Under `O=C(CC1=CSC2=NCCCN12)N1CCCCC1c1cccc(F)c1` (stereo not drawn) stands 20.1%; under `CN1C(=O)CC(C(=O)O)C12CCN(Cc1ccc(Cl)c(Cl)c1)CC2` (stereo not drawn), -7.82%.
Under `COc1ccc(OC2CCN(C(=O)C(C)Cn3cccn3)CC2)cc1` (stereo not drawn) stands -2.17%; under `CN1CCc2nc(N(C)C)nc(N3CCC(O)CC3)c2C1`, -9.46%.
As to `COc1cccn(CC(=O)N2CCCC3(CCCO3)CC2)c1=O` (stereo not drawn), the cytotoxicity at 70.5 h was -7.92%.
To `Cc1ccccc1S(=O)(=O)N1CCc2c(ncnc2N(C)C)C1` belongs 0.46%; to `Cc1cccn2c(CNC(C)CO)cnc12` (stereo not drawn), 40.8%.
In the case of `C=C(C)COc1ccccc1C(=O)N(C)C(C)c1c(C)n[nH]c1C` (stereo not drawn), the cytotoxicity at 70.5 h is -2.31%.
To `Cc1cc(C)nc(NC2CCCN(CCCc3ccccc3)C2)n1` (stereo not drawn) belongs 54.5%.
For `CCN(CCn1cccn1)Cc1nc(-c2ccc(F)cc2)oc1C`, the cytotoxicity at 70.5 h is -6.91%.
Take `O=C(O)C(c1ccc2c(c1)OCCO2)N1CCC(N2CCSCC2)CC1` (stereo not drawn): the cytotoxicity at 70.5 h is -1.86%.
With `CC(C)n1cnnc1CN(C)Cc1cnc(-c2cccs2)nc1`, the cytotoxicity at 70.5 h was 0.122%.
With `Cc1nn(C)c(C)c1CN(CCO)C(=O)C1COc2ccccc2C1` (stereo not drawn), the cytotoxicity at 70.5 h came to 30%.
To `CC(C)CN1CC2(CCN(C(=O)c3nc4ncccn4n3)CC2)CC1=O` belongs -17.1%; to `Cc1cc(C)n(CCN2CCOC(CNc3cccnn3)C2)n1` (stereo not drawn), -4.33%.
Under `CC(C)OCCCNC(=O)CS(=O)(=O)Cc1cccc(Cl)c1` stands -10.6%; under `Cc1ccc(C(=O)NCc2cccnc2N(C)C)s1`, -10.9%.
To `O=C(CC1CCCCC1)NC1CCCCNC1=O` (stereo not drawn) belongs -9.32%.
As for `O=C(CS(=O)(=O)Cc1ccc(F)cc1)NC1CCCCNC1=O` (stereo not drawn), the cytotoxicity at 70.5 h was -6.01%.
Under `CC(NC(=O)c1ccoc1)c1ccc2c(c1)CCC(=O)N2` (stereo not drawn) stands -0.0886%.
With `Cc1ccsc1CNC(=O)NC(C)c1ccc2c(c1)CCC(=O)N2` (stereo not drawn), the cytotoxicity at 70.5 h is -13.4%.
Under `CCCc1nnc(NC(=O)NC(C)Cn2cccn2)s1` (stereo not drawn) stands -0.592%; under `CCn1c(C(=O)N2CCCN(CC(N)=O)CC2)cc2ccccc21`, -3.29%.
Consider `COC(=O)C(NC(=O)C1CCC1)c1cc(F)ccc1F` (stereo not drawn), for which the cytotoxicity at 70.5 h is -7.83%.
As for `NC(=O)C1CCN(C(=O)c2cccn2Cc2cccs2)C1` (stereo not drawn), the cytotoxicity at 70.5 h was -0.693%.
To `c1ccc(-c2nnc(CN3CCCC3Cn3cncn3)o2)cc1` (stereo not drawn) belongs -0.362%; to `COC(=O)C(NC(=O)CCc1ccco1)c1cc(F)ccc1F` (stereo not drawn), -7.98%.
To `CCOCC(O)CN1CCN(C(=O)c2cc(Cl)ccc2F)CC1` (stereo not drawn) belongs 2.85%; to `Fc1ccc(-c2nnc(CN3CCCC(Cn4cncn4)C3)o2)cc1` (stereo not drawn), -5.49%.
To `CCOCC(O)CN1CCN(C(=O)c2cccc(OC)c2)CC1` (stereo not drawn) belongs -2.53%.
Turning to `CCOCC(O)CN1CCN(C(=O)c2cc(F)cc(F)c2)CC1` (stereo not drawn), the cytotoxicity at 70.5 h was -2.71%.
